Assay results reported in paper PMC10584170, “Machine learning-based phenotypic imaging to characterise the targetable biology of Plasmodium falciparum male gametocytes for the development of transmission-blocking antimalarials” (PLOS Pathogens, 2023).
Like-named read-outs stand apart in the source and are kept apart here.

Experiments:
[1] = test system: P. falciparum female gametocytes; assay: P. falciparum Dual Gamete Formation Assay (PfDGFA), female readout (Pfs25-positive female gametes); format: cell-based, Plasmodium falciparum NF54; conditions: for Selectivity ratio F: HepG2 Tox50 versus female IC50; for inhibition at 2 µM / IC50: Plasmodium falciparum; for inhibition at 2 µM: 24h preincubation with gametocytes; for IC50: PfDGFA, 24 h incubation with gametocytes before induction, female gamete readout, read-out: Female IC50; for HitlevelF: number of replicates with >50% inhibition in the female readout
Method in brief: (§1)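 Male and female gamete formation were quantified by microscopy image analysis following 24 h incubation of mature NF54 gametocytes with compound and activation at 28°C with xanthurenic acid.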

[2] = test system: P. falciparum male gametocytes; assay: P. falciparum Dual Gamete Formation Assay (PfDGFA), male readout (exflagellation); format: cell-based, Plasmodium falciparum NF54; conditions: for Selectivity Ratio M: HepG2 Tox50 versus male IC50; for inhibition at 2 µM / IC50: Plasmodium falciparum; for inhibition at 2 µM: 24h preincubation with gametocytes; for IC50: PfDGFA, 24 h incubation with gametocytes before induction, exflagellation readout, read-out: Male IC50; for HitlevelM: number of replicates with >50% inhibition in the male readout
Method in brief: as §1

[3] = test system: HepG2 cells; assay: HepG2 cytotoxicity counter-screen; conditions: cytotoxic activity against HepG2 cells
[4] = PfDGFA at 2µM, average of replicates, read-out: Average inhibition female (%)
[5] = PfDGFA at 2µM, replicate R1, read-out: % inhibition female (individual replicates) R1
[6] = PfDGFA at 2µM, replicate R2, read-out: % inhibition female (individual replicates) R2
[7] = PfDGFA at 2µM, replicate R3, read-out: % inhibition female (individual replicates) R3
[8] = PfDGFA at 2µM, replicate R4, read-out: % inhibition female (individual replicates) R4
[9] = PfDGFA at 2µM, average of replicates, read-out: Average inhibition male (%)
[10] = PfDGFA at 2µM, replicate R1, read-out: % inhibition male (individual replicates) R1
[11] = PfDGFA at 2µM, replicate R2, read-out: % inhibition male (individual replicates) R2
[12] = PfDGFA at 2µM, replicate R3, read-out: % inhibition male (individual replicates) R3
[13] = PfDGFA at 2µM, replicate R4, read-out: % inhibition male (individual replicates) R4
[14] = 2µM, average of replicates, read-out: Average inhibition female (%)
[15] = 2µM, replicate R1, read-out: % inhibition female (individual replicates) R1
[16] = 2µM, replicate R2, read-out: % inhibition female (individual replicates) R2
[17] = 2µM, replicate R3, read-out: % inhibition female (individual replicates) R3
[18] = 2µM, replicate R4, read-out: % inhibition female (individual replicates) R4
[19] = 2µM, average of replicates, read-out: Average inhibition male (%)
[20] = 2µM, replicate R1, read-out: % inhibition male (individual replicates) R1
[21] = 2µM, replicate R2, read-out: % inhibition male (individual replicates) R2
[22] = 2µM, replicate R4, read-out: % inhibition male (individual replicates) R4
[23] = 2µM, replicate R3, read-out: % inhibition male (individual replicates) R3

Row | IC50 [1] [nM] | IC50 [2] [nM] | SMILES | Selectivity ratio F [1] | inhibition at 2 µM [1, 4] [%] | inhibition at 2 µM [1, 5] [%] | inhibition at 2 µM [1, 6] [%] | inhibition at 2 µM [1, 7] [%] | inhibition at 2 µM [1, 8] [%] | HitlevelF ([1]; 2µM) | Selectivity Ratio M [2] | inhibition at 2 µM [2, 9] [%] | inhibition at 2 µM [2, 10] [%] | inhibition at 2 µM [2, 11] [%] | inhibition at 2 µM [2, 12] [%] | inhibition at 2 µM [2, 13] [%] | HitlevelM ([2]; 2µM) | Tox50 [3] [µM] | inhibition at 2 µM [1, 14] [%] | inhibition at 2 µM [1, 15] [%] | inhibition at 2 µM [1, 16] [%] | other results
1 | > 10000 | 250 | CNC(=O)c1ccccc1Nc1nc(Nc2ccc(N3CCN(C)CC3)nc2)ncc1C.Cl [TCMDC-134123] | 0.34 |  |  |  |  |  |  | 14.02 |  |  |  |  |  |  | 3.44 | 0.025 | -2.2 | -9.9 | inhibition at 2 µM [1, 17]: 9.7%; inhibition at 2 µM [1, 18]: 2.5%; inhibition at 2 µM [2, 19]: 96.1%; inhibition at 2 µM [2, 20]: 93.9%; inhibition at 2 µM [2, 21]: 95.8%; inhibition at 2 µM [2, 22]: 98.7%
2 | > 10000 | 180 | CNC(=O)c1ccccc1Nc1nc(Nc2ccc(N3CCOCC3)cc2)ncc1Cl.Cl [TCMDC-134144] | 0.08 | 8.6 | 12.4 | 10.5 | 10.7 | 0.76 | 0 | 4.53 | 88.6 | 93.6 | 91.9 | 82.6 | 86.2 | 4 | 0.82 |  |  |  | 
3 | > 10000 | 400 | COc1ccc(Nc2ncc(Cl)c(Nc3cccnc3C(N)=O)n2)cc1N1CCN(C)CC1.Cl [TCMDC-134163] | 0.3 | -4.7 | 1.7 | -23.4 | -4.2 | 7 | 0 | 7.51 | 79.9 | 77.1 | 88.9 | 73.4 | 80.2 | 4 | 2.98 |  |  |  | 
4 | 5470 | 460 | CN1CCN(c2ccc(Nc3ncc(Cl)c(Nc4cccnc4C(N)=O)n3)cc2)CC1.Cl [TCMDC-134164] | 1.15 |  |  |  |  |  |  | 13.8 |  |  |  |  |  |  | 6.29 | -2.7 | -3.8 | 5.1 | inhibition at 2 µM [1, 17]: -16.9%; inhibition at 2 µM [1, 18]: 4.9%; inhibition at 2 µM [2, 19]: 93.6%; inhibition at 2 µM [2, 20]: 95.4%; inhibition at 2 µM [2, 21]: 93.6%; inhibition at 2 µM [2, 23]: 90.2%; inhibition at 2 µM [2, 22]: 95.2%

Row | SMILES | IC50 [1] [nM] | IC50 [2] [nM] | Selectivity ratio F [1] | inhibition at 2 µM [1, 4] [%] | inhibition at 2 µM [1, 5] [%] | inhibition at 2 µM [1, 6] [%] | inhibition at 2 µM [1, 7] [%] | inhibition at 2 µM [1, 8] [%] | HitlevelF ([1]; 2µM) | Selectivity Ratio M [2] | inhibition at 2 µM [2, 9] [%] | inhibition at 2 µM [2, 10] [%] | inhibition at 2 µM [2, 11] [%] | inhibition at 2 µM [2, 12] [%] | inhibition at 2 µM [2, 13] [%] | HitlevelM ([2]; 2µM) | Tox50 [3] [µM] | inhibition at 2 µM [1, 14] [%] | inhibition at 2 µM [1, 15] [%] | inhibition at 2 µM [1, 16] [%] | other results
5 | CN1CCC(NCc2ccc(-c3cnc(NCc4ccccc4)nc3)cc2)CC1.O=C(O)C(F)(F)F [TCMDC-134120] | 6570 | 960 | 1.69 | 24.9 | 24.7 | 16.8 | -0.09 | 58.4 | 1 | 11.62 | 86.5 | 83.5 | 87.5 | 86.1 | 88.9 | 4 | 11.1 |  |  |  | 
6 | COc1ccc(Nc2ncc(OC)c(Nc3ccccc3C(N)=O)n2)cc1N1CCN(C)CC1.O=CO [TCMDC-134149] | 7910 | 180 | 0.66 |  |  |  |  |  |  | 28.52 |  |  |  |  |  |  | 5.24 | 13.9 | 17.6 | 16.3 | inhibition at 2 µM [1, 17]: 5.9%; inhibition at 2 µM [1, 18]: 15.7%; inhibition at 2 µM [2, 19]: 94.7%; inhibition at 2 µM [2, 20]: 95.1%; inhibition at 2 µM [2, 21]: 101%; inhibition at 2 µM [2, 23]: 85.5%; inhibition at 2 µM [2, 22]: 97.6%
